Laboratory results: patent US7655657B2, “Fused bicycloheterocycle substituted quinuclidine derivatives” (Abbott Laboratories, priority 2003, dated 2010)
Structures can show the parent of a compound that is named as a salt. Where two headings read alike, the source gives them in different places.

Legend:
α7 nAChRs = target: T1, α7 nAChRs (Rattus norvegicus, UniProt Q05941); experiment: [3H]-methyllycaconitine (MLA) binding assay
T1 construct: Membrane enriched fractions from rat brain minus cerebellum; tissue ABS Inc., Wilmington, Del; host or cells: rat brain minus cerebellum
Protocol: To determine the effectiveness of representative compounds of this invention as α7 nAChRs, the compounds of the invention were evaluated according to the [3H]-methyllycaconitine (MLA) binding assay and considering the [^3H]-cytisine binding assay, which were performed as described below.
[^3H]-Methyllycaconitine (MLA) Binding
Binding conditions were similar to those for [^3H]-cytisine binding. Membrane enriched fractions from rat brain minus cerebellum (ABS Inc., Wilmington, Del.) were slowly thawed at 4° C., washed and resuspended in 30 volumes of BSS-Tris buffer (120 mM NaCl, 5 mM KCl, 2 mM CaCl2, 2 mM MgCl2, and 50 mM Tris-Cl, pH 7.4, 22° C.). Samples containing 100-200 μg of protein, 5 nM [^3H]-MLA (25 Ci/mmol; Perkin Elmer/NEN Life Science Products, Boston, Mass.) and 0.1% bovine serum albumin (BSA, Millipore, Bedford, Mass.) were incubated in a final volume of 500 μL for 60 minutes at 22° C. Seven log-dilution concentrations of each compound were tested in duplicate. Non-specific binding was determined in the presence of 10 μM MLA. Bound radioactivity was isolated by vacuum filtration onto glass fiber filter plates prewetted with 2% BSA using a 96-well filtration apparatus (Packard Instruments, Meriden, Conn.) and were then rapidly rinsed with 2 mL of ice-cold BSS. Packard MicroScint-20® scintillation cocktail (40 μL) was added to each well and radioactivity was determined using a Packard TopCount® instrument. The IC50 values were determined by nonlinear regression in Microsoft Excel® software. Ki values were calculated from the IC50s using the Cheng-Prusoff equation, where Ki=IC50/1+[Ligand]/KD].

hERG ion channel = hERG ion channel (Homo sapiens, UniProt Q12809); experiment: [3H]-dofetilide binding to membranes from HERG-transfected HEK cells; details: for selectivity ratio at 45 min: human, membrane preparations from HERG-transfected HEK cells, pH 7.4, probe [3H]-dofetilide
Protocol: Membrane aliquots were thawed and homogenized again in a glass Dounce homogenizer (approximately 10 passes). Test compounds were diluted (6 concentrations at half-log intervals) from DMSO stock solutions in assay buffer (135 mM NaCl, 5 mM KCl, 0.8 mM MgCl2, 10 mM HEPES, 10 mM glucose, 1 mM EGTA, 0.01% BSA, pH 7.4), and tested in duplicate at each concentration. The following were added to each 200 μl well of a 96-well polystyrene plate (Packard Optiplate, cat. # 6005290): 20 μl of assay binding buffer (for total bounds), or 1 μM astemizole (for non-specific bounds), or test compound, 50 μl of [^3H]-dofetilide, and 130 μl of membrane homogenate (final protein concentration=30 μg per well). The plates were incubated at room temperature for 45 m, aspirated onto GF/B filter plates, and washed with 2 ml of cold wash buffer. The radioactivity was counted in a Packard Topcount Scintillation Counter after addition of 50 μl of scintillant (Packard Microscint-20, cat. # 6013621). The data were analyzed with a four-parameter logistic equation (PRISM™, Graphpad or Assay Explorer™, MDL). Ki values were derived by means of the Cheng and Prusoff (1973) equation (Ki=IC50/1+[ligand]/Kd) using Kd values for [^3H]-dofetilide obtained from previously performed saturation assays (Diaz et al., 2004). […] Each Ki represents an average of at least two independent determinations.
Thus, binding affinities to the hERG channel were expressed in Ki value, i.e. Ki hERG.

[1] = rat brain minus cerebellum membranes, 5 nM [3H]-MLA, read-out: α7 binding [3H]MLA Ki

hERG ion channel, sequence (Q12809 whole entry): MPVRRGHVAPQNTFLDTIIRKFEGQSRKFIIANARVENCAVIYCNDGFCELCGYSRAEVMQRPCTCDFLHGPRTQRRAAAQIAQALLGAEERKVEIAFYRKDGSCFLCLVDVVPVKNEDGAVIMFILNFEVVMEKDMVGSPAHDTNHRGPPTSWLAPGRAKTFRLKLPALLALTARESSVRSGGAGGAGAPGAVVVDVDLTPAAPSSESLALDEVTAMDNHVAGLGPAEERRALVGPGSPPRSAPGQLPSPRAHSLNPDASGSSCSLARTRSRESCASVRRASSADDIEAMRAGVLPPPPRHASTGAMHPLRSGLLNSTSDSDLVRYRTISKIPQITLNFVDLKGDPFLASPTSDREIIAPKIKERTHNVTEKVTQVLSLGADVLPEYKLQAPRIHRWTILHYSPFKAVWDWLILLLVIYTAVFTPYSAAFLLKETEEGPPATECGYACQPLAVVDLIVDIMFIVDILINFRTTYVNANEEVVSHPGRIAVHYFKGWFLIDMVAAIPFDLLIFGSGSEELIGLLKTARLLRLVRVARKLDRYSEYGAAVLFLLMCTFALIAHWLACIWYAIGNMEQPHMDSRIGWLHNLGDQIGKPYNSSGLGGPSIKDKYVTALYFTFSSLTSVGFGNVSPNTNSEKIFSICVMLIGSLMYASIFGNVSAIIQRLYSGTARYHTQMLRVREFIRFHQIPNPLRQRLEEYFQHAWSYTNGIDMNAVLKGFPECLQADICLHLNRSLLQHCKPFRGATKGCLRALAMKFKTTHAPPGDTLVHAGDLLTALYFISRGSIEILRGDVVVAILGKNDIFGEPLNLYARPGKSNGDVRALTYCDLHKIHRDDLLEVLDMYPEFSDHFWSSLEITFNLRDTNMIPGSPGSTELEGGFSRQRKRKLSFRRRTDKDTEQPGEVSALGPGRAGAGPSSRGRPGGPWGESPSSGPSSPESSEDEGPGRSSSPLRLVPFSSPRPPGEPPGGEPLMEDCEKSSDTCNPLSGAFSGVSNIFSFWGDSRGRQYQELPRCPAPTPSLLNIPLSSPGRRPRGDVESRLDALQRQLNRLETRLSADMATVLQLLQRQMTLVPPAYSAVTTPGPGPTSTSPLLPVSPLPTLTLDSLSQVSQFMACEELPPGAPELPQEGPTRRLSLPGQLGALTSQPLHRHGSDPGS
T1 sequence (Q05941 23-502): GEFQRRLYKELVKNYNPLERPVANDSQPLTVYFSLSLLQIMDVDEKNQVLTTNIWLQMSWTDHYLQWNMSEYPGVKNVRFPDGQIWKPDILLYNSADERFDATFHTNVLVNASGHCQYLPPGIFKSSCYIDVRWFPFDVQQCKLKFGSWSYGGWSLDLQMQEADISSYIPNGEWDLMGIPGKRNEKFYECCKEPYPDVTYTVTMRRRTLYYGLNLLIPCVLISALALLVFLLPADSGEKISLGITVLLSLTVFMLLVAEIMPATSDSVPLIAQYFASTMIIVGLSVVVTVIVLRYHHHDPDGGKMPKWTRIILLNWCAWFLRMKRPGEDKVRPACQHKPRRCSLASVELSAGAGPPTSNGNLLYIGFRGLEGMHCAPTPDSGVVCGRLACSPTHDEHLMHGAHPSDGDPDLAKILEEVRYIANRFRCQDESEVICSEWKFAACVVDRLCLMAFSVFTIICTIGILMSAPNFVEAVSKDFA

| Compound | Ki (α7 nAChRs; [1]) | Ki (hERG ion channel) | selectivity ratio at 45 min (hERG ion channel) | Ki (α7 nAChRs) |
| --- | --- | --- | --- | --- |
| c1cc2cc(-c3ccc(O[C@H]4CN5CCC4CC5)nn3)ccc2o1 [B, (R)-3-[6-(Benzofuran-5-yl)-pyridazin-3-yloxy]-1-aza-bicyclo[2.2.2]octane trifluoroacetate, reference compound] | 0.142 µM | 4.09 µM | 29 |  |
| C1=Cc2cc(-c3ccc(O[C@H]4CN5CCC4CC5)nn3)ccc2C1 [D, (R)-3-[6-(1H-Inden-5-yl)-pyridazin-3-yloxy]-1-aza-bicyclo[2.2.2]octane trifluoroacetate, reference compound] | 0.0157 µM | 2.09 µM | 133 |  |
| c1cc2c(cc1-c1ccc(O[C@H]3CN4CCC3CC4)nn1)CCC2 [E, (R)-3-(6-Indan-5-yl-pyridazin-3-yloxy)-1-aza-bicyclo[2.2.2]octane trifluoroacetate, reference compound] | 0.0339 µM | 1.68 µM | 50 |  |
| c1cc2cc(-c3ccc(O[C@H]4CN5CCC4CC5)nn3)ccc2[nH]1 [Example 9, 5-{6-[(3R)-1-Azabicyclo[2.2.2]oct-3-yloxy]pyridazin-3-yl}-1H-indole] | 0.0067 µM | 10.9 µM | 1620 |  |
| Cc1c[nH]c2ccc(-c3ccc(O[C@H]4CN5CCC4CC5)nn3)cc12 [Example 10, 5-{6-[(3R)-1-Azabicyclo[2.2.2]oct-3-yloxy]pyridazin-3-yl}-3-methyl-1H-indole] |  | 5.2 µM | 1680 | 0.0031 µM |
| c1cc(-c2cnc(O[C@H]3CN4CCC3CC4)nc2)c2cc[nH]c2c1 [Example 12, 4-{2-[(3R)-1-Azabicyclo[2.2.2]oct-3-yloxy]pyrimidin-5-yl}-1H-indole] |  | 8.83 µM | 516 | 0.0171 µM |
| Nc1nc2ccc(-c3ccc(O[C@H]4CN5CCC4CC5)cc3)cc2s1 [Example 16, 6-{4-[(3R)-1-Azabicyclo[2.2.2]oct-3-yloxy]phenyl}-1,3-benzothiazol-2-amine] |  | 1.51 µM | 888 | 0.0017 µM |
| Cc1n[nH]c2ccc(-c3ccc(O[C@H]4CN5CCC4CC5)nn3)cc12 [Example 20, (R)-3-[6-(3-Methyl-1H-indazol-5-yl)-pyridazin-3-yloxy]-1-aza-bicyclo[2.2.2]octane fumarate] | 0.0163 µM | 13 µM | 797 |  |
| CN(C)Cc1c[nH]c2ccc(-c3ccc(O[C@H]4CN5CCC4CC5)nn3)cc12 [Example 22, (R)-{5-[6-(1-Aza-bicyclo[2.2.2]oct-3-yloxy)-pyridazin-3-yl]-1H-indol-3-ylmethyl}-dimethyl-amine bis(fumarate)] | 0.0558 µM | 37.3 µM | 669 |  |
| O=C1Cc2cc(-c3ccc(O[C@H]4C[N+]5([O-])CCC4CC5)nn3)ccc2N1 [Example 27, 5-{6-[(3R)-1-Oxy-1-Aza-bicyclo[2.2.2]oct-3-yloxy]-pyridazin-3-yl}-1,3-dihydro-indol-2-one bis(hydrogen chloride)] | 0.0139 µM | > 50 µM | > 4000 |  |
| c1cc2cc(-c3ccc(O[C@@H]4CN5CCC4CC5)nn3)ccc2[nH]1 [Example 30, (S)-3-[6-(1H-Indol-5-yl)-pyridazin-3-yloxy]-1-aza-bicyclo[2.2.2]octane fumarate] | 0.0043 µM | 12.7 µM | 2960 |  |
| c1cc2cc(-c3ccc(O[C@H]4CN5CCC4CC5)nc3)ccc2[nH]1 [Example 31, (R)-3-[5-(1H-Indol-5-yl)-pyridin-2-yloxy]-1-aza-bicyclo[2.2.2]octane trifluoroacetate] | 0.0076 µM | 2.57 µM | 339 |  |
| c1ccc2cc(-c3ccc(O[C@H]4CN5CCC4CC5)nn3)ccc2c1 [Example A, (R)-3-(6-Naphthalen-2-yl-pyridazin-3-yloxy)-1-aza-bicyclo[2.2.2]octane trifluoroacetate, reference compound] | 0.0789 µM | 0.838 µM | 11 |  |
| c1ccc2oc(-c3ccc(O[C@H]4CN5CCC4CC5)nn3)cc2c1 [Example C, (R)-3-[6-(Benzofuran-2-yl)-pyridazin-3-yloxy]-1-aza-bicyclo[2.2.2]octane trifluoroacetate, reference compound] | 0.162 µM | 0.392 µM | 2 |  |
